Assay results from patent US9107900B2, “Use of dronedarone for the preparation of a medicament for use in the prevention of cardiovascular hospitalization or of morality” (SANOFI, priority 2008, dated 2015).
Structures can show the parent of a compound that is named as a salt.

Tested on: patients having a history of atrial fibrillation or atrial flutter
Assay: prospective, multinational, multicentre, double-blind clinical study versus placebo: cardiovascular hospitalizations and mortality
Type: in vivo, human
Conditions: for HR (95% CI): cardiovascular hospitalization and death / decrease of cardiovascular hospitalization and death: vs placebo
Procedure: The patients had to have a history of atrial fibrillation or flutter and/or could be in normal sinus rhythm or in atrial fibrillation or flutter at inclusion.
The patient recruitment was carried out by taking into account the following inclusion criteria:
• 1) One of the following risk factors had to be present: • age equal to or greater than 70 years, • hypertension (taking antihypertensives of at least two different classes), • diabetes, • history of cerebral stroke (transient ischemic event or completed cerebral stroke) or of systemic embolism, • left atrial diameter greater than or equal to 50 mm measured by echocardiography, • left ventricular ejection fraction less than 40%, measured by two-dimensional echography; or • age equal to or above 70, or even above 75, possibly combined with at least one of the risk factors below: • hypertension (taking antihypertensives of at least two different classes), • diabetes, • history of cerebral stroke (transient ischemic event or completed cerebral stroke) or of systemic embolism, • left atrial diameter greater than or equal to 50 mm measured by echocardiography, • left ventricular ejection fraction less than 40%, measured by two-dimensional echography; • 2) availability of an electrocardiogram carried out during the past 6 months in order to document the presence or the history of atrial fibrillation or flutter; • 3) availability of an electrocardiogram carried out during the past 6 months in order to document the presence or absence of normal sinus rhythm. […] Criteria Related to a Cardiac Condition: • Patients in permanent atrial fibrillation • Patients in unstable hemodynamic condition such as acute pulmonary edema within 12 hours prior to start of study medication; cardiogenic shock; treatment with IV pressor agents; patients on respirator; congestive heart failure of stage NYHA IV within the last 4 weeks; uncorrected, hemodynamically significant primary obstructive valvular disease; hemodynamically significant obstructive cardomyopathy; a cardiac operation or revascularization procedure within 4 weeks preceding randomization • Planned major non-cardiac or cardiac surgery or procedures including surgery for valvular heart disease, coronary artery bypass graft (CABG), percutaneous coronary intervention (PCI), or on urgent cardiac transplantation list • Acute myocarditis or constrictive pericarditis • Bradycardia<50 bpm and/or PR-interval>0.28 sec on the last 12-lead ECG. • Significant sinus node disease (documented pause of 3 seconds or more) or 2nd or 3rd degree atrioventricular block (AV-block) unless treated with a pacemaker. Criteria Related to Concomitant Medications:
Need of a concomitant medication that is prohibited in this trial, including the requirement for Vaughan Williams Class I and III anti-arrhythmic drugs, that would preclude the use of study drug during the planned study period, i.e. patients have to stop others antiarrhythmics such as Vaughan Williams Class I and III anti-arrhythmic drugs, for example amiodarone, flecamide, propafenone, quinidine, disopyramide, dofetilide, solatol.
• Plasma potassium<3.5 mmol/l (as anti-arrhythmic drugs can be arrhythmogenic in patients with hypokalemia, this must be corrected prior to randomization. • A calculated GFR at baseline<10 ml/min using the Cockroft Gault formula (GFR [ml/min]=(140−AGE [years]*WEIGHT [kilograms]*CONSTANT/CREATININE [μmol/L], where CONSTANT is […]).
Furthermore, the concomitant use of grapefruit juice and all potent inhibitors of CYP3A4 such as ketoconazole were prohibited.
Treatment was initiated using tablets containing either the placebo or an amount of dronedarone hydrochloride corresponding to 400 mg of dronedarone at a rate of twice a day with the morning and evening meal and more specifically at a rate of one tablet in the morning during or shortly after breakfast and one tablet in the evening during or shortly after dinner. […]

[1] = III.30 cardiovascular hospitalization, Dronedarone N = 2301
[2] = III.31 hospitalization not due to supraventricular arrhythmia, Dronedarone N = 2301

Structure (SMILES): CCCCc1oc2ccc(NS(C)(=O)=O)cc2c1C(=O)c1ccc(OCCCN(CCCC)CCCC)cc1 [dronedarone hydrochloride, 2-n-Butyl-3-[4-(3-di-n-butylaminopropoxy)benzoyl]-5-methylsulphonamidobenzofuran]
- HR (95% CI): cardiovascular hospitalization and death (Age ≧75 years (N 1925)): 0.75 (0.65, 0.87)
- decrease of cardiovascular hospitalization and death (Age ≧75 years): 25%
- HR (95% CI): cardiovascular hospitalization and death (Diabetes (N 945)): 0.75 (0.61, 0.91)
- decrease of cardiovascular hospitalization and death (Diabetes): 25%
- HR (95% CI): cardiovascular hospitalization and death (Hypertension (N 3995)): 0.77 (0.69, 0.85)
- decrease of cardiovascular hospitalization and death (Hypertension): 23%
- Any cardiovascular hospitalization, number [1]: 675
- Any cardiovascular hospitalization, percent [1]: (29.3%)
- Atherosclerosis related (if not otherwise specified), number [1]: 11
- Atherosclerosis related (if not otherwise specified), percent [1]: (0.5%)
- Atrial fibrillation and other supraventricular rhythm disorders, number [1]: 296
- Atrial fibrillation and other supraventricular rhythm disorders, percent [1]: (12.9%)
- Blood pressure related (hypotension, hypertension; except syncope), number [1]: 21
- Blood pressure related (hypotension, hypertension; except syncope), percent [1]: (0.9%)
- Cardiovascular infection, number [1]: 4
- Cardiovascular infection, percent [1]: (0.2%)
- Cardiovascular surgery except cardiac transplantation, number [1]: 21
- Cardiovascular surgery except cardiac transplantation, percent [1]: (0.9%)
- Implantation of a pacemaker, ICD or any other cardiac device, number [1]: 32
- Implantation of a pacemaker, ICD or any other cardiac device, percent [1]: (1.4%)
- Major bleeding (requiring two or more units of blood or any intracranial hemorrhage), number [1]: 21
- Major bleeding (requiring two or more units of blood or any intracranial hemorrhage), percent [1]: (0.9%)
- Myocardial infarction or unstable angina, number [1]: 48
- Myocardial infarction or unstable angina, percent [1]: (2.1%)
- Non-fatal cardiac arrest, number [1]: 3
- Non-fatal cardiac arrest, percent [1]: (0.1%)
- Other ventricular arrhythmia, number [1]: 1
- Other ventricular arrhythmia, percent [1]: (<0.1%)
- Pulmonary embolism or deep vein thrombosis, number [1]: 10
- Pulmonary embolism or deep vein thrombosis, percent [1]: (0.4%)
- Stable angina pectoris or atypical chest pain, number [1]: 45
- Stable angina pectoris or atypical chest pain, percent [1]: (2.0%)
- Syncope, number [1]: 21
- Syncope, percent [1]: (0.9%)
- TIA or stroke (except intracranial hemorrhage), number [1]: 28
- TIA or stroke (except intracranial hemorrhage), percent [1]: (1.2%)
- Transcutaneous coronary, cerebrovascular or peripheral procedure, number [1]: 27
- Transcutaneous coronary, cerebrovascular or peripheral procedure, percent [1]: (1.2%)
- Ventricular extrasystoles, number [1]: 1
- Ventricular extrasystoles, percent [1]: (<0.1%)
- Ventricular fibrillation, number [1]: 1
- Ventricular fibrillation, percent [1]: (<0.1%)
- Ventricular tachycardia (non-sustained and sustained), number [1]: 6
- Ventricular tachycardia (non-sustained and sustained), percent [1]: (0.3%)
- Worsening heart failure, including pulmonary edema or dyspnea of cardiac origin, number [1]: 78
- Worsening heart failure, including pulmonary edema or dyspnea of cardiac origin, percent [1]: (3.4%)
- Any non-AF cardiovascular hospitalization, number [2]: 438
- Any non-AF cardiovascular hospitalization, percent [2]: (19.0%)
- Atherosclerosis related (if not otherwise specified), number [2]: 11
- Atherosclerosis related (if not otherwise specified), percent [2]: (0.5%)
- Blood pressure (hypotension, hypertension, not syncope), number [2]: 25
- Blood pressure (hypotension, hypertension, not syncope), percent [2]: (1.1%)
- Cardiovascular infection, number [2]: 4
- Cardiovascular infection, percent [2]: (0.2%)
- Cardiovascular surgery except cardiac transplantation, number [2]: 24
- Cardiovascular surgery except cardiac transplantation, percent [2]: (1.0%)
- Implantation of a pacemaker, ICD or any other cardiac device, number [2]: 46
- Implantation of a pacemaker, ICD or any other cardiac device, percent [2]: (2.0%)
- Major bleeding (requiring two or more units of blood or any intracranial hemorrhage), number [2]: 27
- Major bleeding (requiring two or more units of blood or any intracranial hemorrhage), percent [2]: (1.2%)
- Myocardial infarction or unstable angina, number [2]: 52
- Myocardial infarction or unstable angina, percent [2]: (2.3%)
- Non-fatal cardiac arrest, number [2]: 3
- Non-fatal cardiac arrest, percent [2]: (0.1%)
- Other ventricular arrhythmia, number [2]: 1
- Other ventricular arrhythmia, percent [2]: (<0.1) %
- Pulmonary embolism or deep vein thrombosis, number [2]: 11
- Pulmonary embolism or deep vein thrombosis, percent [2]: (0.5%)
- Stable angina pectoris or atypical chest pain, number [2]: 51
- Stable angina pectoris or atypical chest pain, percent [2]: (2.2%)
- Syncope, number [2]: 23
- Syncope, percent [2]: (1.0%)
- TIA or stroke (except intracranial hemorrhage), number [2]: 32
- TIA or stroke (except intracranial hemorrhage), percent [2]: (1.4%)
- Transcutaneous coronary, cerebrovascular or peripheral procedure, number [2]: 31
- Transcutaneous coronary, cerebrovascular or peripheral procedure, percent [2]: (1.3%)
- Ventricular extrasystoles, number [2]: 1
- Ventricular extrasystoles, percent [2]: (<0.1) %
- Ventricular fibrillation, number [2]: 1
- Ventricular fibrillation, percent [2]: (<0.1) %
- Ventricular tachycardia (non-sustained and sustained), number [2]: 6
- Ventricular tachycardia (non-sustained and sustained), percent [2]: (0.3%)
- Worsening heart failure, including pulmonary edema or dyspnea of cardiac origin, number [2]: 89
- Worsening heart failure, including pulmonary edema or dyspnea of cardiac origin, percent [2]: (3.9%)
- HR (95% CI): cardiovascular hospitalization and death (LVEF <0.40 (N 338)): 0.72 (0.51, 1.00)
- decrease of cardiovascular hospitalization and death (LVEF <0.40): 28%
